Several values for one entry are separate records, joined by “and”; a condition that tells them apart may be missing. Equal values may be shown once.
How the values were obtained:
CDK2 (human) [1] = biological target: CDK2 (human) (UniProt P24941); test: Enzyme Assay
CDK2;CDK1 (human) = CDK2;CDK1 (human) (UniProt P24941); test: Cell-Based Assay
CDK2 (human) [2] = biological target: CDK2 (human) (UniProt P24941); test: Enzyme Assay; remark: listed apart in the source

Row | SMILES | IC50 (CDK2 (human) [1]) | further results
1 | CC(C)n1cnc2c(NCc3ccc(-c4ccccc4)cc3)nc(N[C@H]3CC[C@H](O)CC3)nc21 | > 10 µM | GI50 (CDK2;CDK1 (human); adr-res): 0.03 µM
2 | CC(=O)N[C@H]1CC[C@H](Nc2nc(NCc3ccc(-c4ccc(C)cc4)cc3)c3ncn(C(C)C)c3n2)CC1 | > 10 µM | –
3 | CC(C)n1cnc2c(NCc3ccc(-c4ccccc4)cc3)nc(N[C@H]3CCCC[C@H]3NC(=O)Nc3ccccc3)nc21 | > 10 µM | IC50 (CDK2 (human) [2]): > 10 µM
4 | CC(=O)N[C@H]1CC[C@H](Nc2nc(NCc3ccc(-c4cccc(F)c4)cc3)c3ncn(C(C)C)c3n2)CC1 | – | GI50 (CDK2;CDK1 (human); hela-s3): 0.07 µM and 0.2 µM
5 | CC(C)n1cnc2c(NCc3ccc(-c4ccccc4)cc3)nc(NC3(CO)CCCC3)nc21 | > 10 µM | –
6 | CC(=O)N[C@@H](C)CNc1nc(NCc2ccc(-c3ccccc3)cc2)c2ncn(C(C)C)c2n1 | ≥ 10 µM | IC50 (CDK2 (human) [2]): > 10 µM
7 | CC(=O)C1CCN(c2nc(NCc3ccc(-c4ccccc4)cc3)c3ncn(C(C)C)c3n2)CC1 | – | GI50 (CDK2;CDK1 (human); hela-s3): 3 µM and 5 µM
8 | CC(C)n1cnc2c(NCc3ccc(-c4cccc(F)c4)cc3)nc(N[C@H]3CC[C@H](N)CC3)nc21 | – | GI50 (CDK2;CDK1 (human); hela-s3): 0.05 µM and 0.03 µM
9 | CC(=O)N[C@H]1CCCC[C@@H]1Nc1nc(NCc2ccc(-c3ccccc3)cc2)c2ncn(C(C)C)c2n1 | > 10 µM | IC50 (CDK2 (human) [2]): > 10 µM
10 | CC(=O)N[C@H]1CC[C@H](Nc2nc(NCc3ccc(-c4ccc(Cl)cc4)cc3)c3ncn(C(C)C)c3n2)CC1 | > 10 µM | –
11 | CC(=O)N[C@H]1CC[C@H](Nc2nc(NCc3ccc(-c4ccc(C(=O)O)cc4)cc3)c3ncn(C(C)C)c3n2)CC1 | > 10 µM | IC50 (CDK2 (human) [2]): > 10 µM
12 | CC(=O)N[C@H]1CC[C@H](Nc2nc(NCc3ccc(-c4ccccc4)nc3)c3ncn(C(C)C)c3n2)CC1 | – | GI50 (CDK2;CDK1 (human); h226): 0.052 µM
13 | CC(=O)N[C@H]1CC[C@H](Nc2nc(NCc3ccc(-c4ccc(F)c(Cl)c4)cc3)c3ncn(C(C)C)c3n2)CC1 | > 10 µM | –
14 | COC(=O)c1ccc(-c2ccc(CNc3nc(N[C@H]4CC[C@H](NC(C)=O)CC4)nc4c3ncn4C(C)C)cc2)cc1 | > 10 µM | –
15 | CC[C@H](CO)Nc1nc(NCc2ccc(-c3cccc(NC(C)=O)c3)cc2)c2ncn(C(C)C)c2n1 | > 10 µM | –
16 | CC(=O)N[C@H]1CC[C@H](Nc2nc(NCc3ccc(-c4ccc(F)cc4)cc3)c3ncn(C(C)C)c3n2)CC1 | > 10 µM | –

Reference: the Kinase Knowledgebase extract (Sharma et al. 2016)
